Tests used:
[1] = bleaching test with food dye and hydrogen peroxide; conditions: FIG. 2; for time after which the blue color was bleached: food dye in Tris buffer pH 8.0 with H2O2 (30%) 1:1, 10 mg compound per mL; for bleaching activation effect: food dye (blue) with H2O2, room temperature
Protocol: (§1) To study the hydrolytic degradation, 1 and 2 were dissolved in Tris buffer (pH 8.0, 0.1 M):acetonitrile (can) mixture (3:1, v/v) at 50 μg/mL. The perhydrolytic degradation was evaluated at similar conditions in the presence of sodium perborate (10 equiv.). Commercially available bleach activator, tetraacetylethylenediamine (TAED), was used as a control. The mixture was incubated at room temperature (20° C.) for 20 days. At different time intervals, an aliquot of the solution was taken out and analyzed by HPLC. The concentration of 1 and 2 was quantified by UV-vis absorption at Δmax=218 nm through standard curve. For the bleaching test, 1, 2, TAED, and other control molecules (20 mg) were treated with commercially available food dyes (100× dilution, 1 mL) and hydrogen peroxide (H2O2, 30%, 1 mL). The mixtures were incubated at room temperature (20° C.) and checked at different time intervals to monitor the bleaching of the dyes.
The compounds of the invention were subjected to a bleaching test. The food dye was purchased from Adams Extract, and diluted 500 times with Tris buffer (pH 8.0, 0.1 M) before use. The diluted food dye was mixed with H2O2 (30%) in 1:1 ratio (v/v). For every 10 mg of TAED/TA(Me)ED/TriA(Me)ED, 1 mL of food dye/H2O2 mixture was added. The widely used bleach activator TAED actively reacted with H2O2, and the blue color disappeared after about 24 hours.

[2] = hydrolytic degradation in buffer, followed by HPLC; type: physicochemical; conditions: for kH (hydrolysis rate constant) / half-life at 50 μg/mL: Tris buffer pH 8.0 (0.1 M):acetonitrile 3:1, 50 μg/mL, 20° C.; for half-life at 50 μg/mL: Tris buffer:acetonitrile (3:1, v/v), read-out: t1/2,H (hydrolysis half-life) (converted); for half-life relative to half-life of TAED: pH 8.0; for hydrolytic degradation compared with TAED: pH 8.0, FIG. 1A
Protocol: as §1

[3] = perhydrolytic degradation in the presence of sodium perborate (10 equiv.), followed by HPLC; type: physicochemical; conditions: sodium perborate/persalts 10 equiv.
Protocol: as §1

[4] = hydrolytic degradation in buffer, followed by HPLC; type: physicochemical; conditions: pH 9.0
[5] = solubility in aqueous environment; type: physicochemical; conditions: without organic solvent

SMILES | kH (hydrolysis rate constant) [2] [h⁻¹] | half-life at 50 μg/mL [2] [h] | half-life relative to half-life of TAED [2] [times longer] | hydrolytic degradation compared with TAED [2] | hydrolysis compared to TAED ([2]; pH values between about 5 and 9) | perhydrolysis rate, comparison among TAED, 1 and 2 [3] | half-life relative to half-life of TAED [4] [times longer] | hydrolysis compared to TAED ([2]; basic pH) | solubility in water [5] | time after which the blue color was bleached [1] | bleaching activation effect [1]
CC(=O)N(CC(C)N(C(C)=O)C(C)=O)C(C)=O (stereo not drawn) [Compound 1, N,N′-(propane-1,2-diyl)bis(N-acetylacetamide)] | 0.0038 | 181 | 1.5 | slower degradation | slower hydrolysis | comparable | 2.6 |  |  | 24 h | 
CC(=O)NCC(C)NC(C)=O (stereo not drawn) [Compound 3, N,N′-(propane-1,2-diyl)diacetamide, reference compound] |  |  |  |  |  |  |  |  |  |  | did not exhibit any bleaching activation effect
CC(=O)NCCNC(C)=O [DAED, diacetylethylenediamine, reference compound] |  |  |  |  |  |  |  |  |  |  | did not exhibit any bleaching activation effect

Second part, led by results:

kH (hydrolysis rate constant) [2] [h⁻¹] | half-life at 50 μg/mL [2] [h] | half-life relative to half-life of TAED [2] [times longer] | hydrolytic degradation compared with TAED [2] | hydrolysis compared to TAED ([2]; pH values between about 5 and 9) | perhydrolysis rate, comparison among TAED, 1 and 2 [3] | half-life relative to half-life of TAED [4] [times longer] | hydrolysis compared to TAED ([2]; basic pH) | solubility in water [5] | SMILES | time after which the blue color was bleached [1] | bleaching activation effect [1]
0.0015 | 462 | 5.7 | slower degradation |  | comparable | 5.8 | even slower hydrolysis |  | CC(=O)NC(C)CN(C(C)=O)C(C)=O (stereo not drawn) [Compound 2, N-(2-acetamidopropyl)-N-acetylacetamide] | 24 h | much slower bleaching action
0.0091 | 76 |  |  |  | comparable |  |  | cannot be easily solubilized in water | CC(=O)N(CCN(C(C)=O)C(C)=O)C(C)=O [TAED, tetraacetylethylenediamine, reference compound] | about 24 hours | 

Reference: patent US11525106B2, “Tetraacetyldiamine and triacetyldiamine derivatives useful as bleach activators” (DOW GLOBAL TECHNOLOGIES LLC, priority 2018, dated 2022)
